Results: ChEMBL document CHEMBL2439959, “Structural study of the location of the phenyl tail of benzene sulfonamides and the effect on human carbonic anhydrase inhibition” (Bioorg Med Chem, 2013)

Experiments:
[1] = biological target: Carbonic anhydrase 5B, mitochondrial (Homo sapiens, UniProt Q9Y2D0)
[2] = biological target: Carbonic anhydrase 5A, mitochondrial (Homo sapiens, UniProt P35218)
Sequence of Carbonic anhydrase 5A, mitochondrial (P35218 whole entry): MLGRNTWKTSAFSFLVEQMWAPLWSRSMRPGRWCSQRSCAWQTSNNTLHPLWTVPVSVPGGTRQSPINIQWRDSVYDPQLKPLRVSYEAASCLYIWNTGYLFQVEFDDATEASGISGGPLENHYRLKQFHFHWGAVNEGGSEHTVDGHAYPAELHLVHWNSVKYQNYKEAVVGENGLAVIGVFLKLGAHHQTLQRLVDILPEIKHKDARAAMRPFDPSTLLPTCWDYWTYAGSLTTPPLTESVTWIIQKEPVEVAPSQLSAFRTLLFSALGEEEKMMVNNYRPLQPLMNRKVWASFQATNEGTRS

Sequence of Carbonic anhydrase 5B, mitochondrial (Q9Y2D0 whole entry): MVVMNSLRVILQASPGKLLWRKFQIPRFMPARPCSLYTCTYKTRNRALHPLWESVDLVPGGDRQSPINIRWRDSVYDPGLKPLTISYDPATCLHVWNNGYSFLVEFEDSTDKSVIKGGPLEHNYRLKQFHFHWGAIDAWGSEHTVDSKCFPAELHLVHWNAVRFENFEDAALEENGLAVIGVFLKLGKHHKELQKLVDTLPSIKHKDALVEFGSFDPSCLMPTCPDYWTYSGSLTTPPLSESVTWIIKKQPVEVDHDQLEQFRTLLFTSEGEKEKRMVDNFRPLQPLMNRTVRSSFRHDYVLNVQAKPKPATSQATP

SMILES	Ki [1] [µM]	Ki [2] [µM]
NS(=O)(=O)c1ccc(Nc2nc(Cl)nc(NCCO)n2)cc1	0.34	0.451
NS(=O)(=O)c1ccc(NC(=O)Cc2ccccc2)cc1	0.01	0.013
